Laboratory results as given in US12507703B2, “Methods, devices and compositions for preserving human milk” (The Trustees of Princeton University, priority 2023, dated 2025).
“And” between values parts separate entries of the source, which are not always exact repeats. Equal values may be shown once.

Tested on: lipase
Experiment: Lipase/lipolysis assay (EnzChek Lipase Substrate, quenched BODIPY-fatty acid conjugate) on stored human milk; for Lipase (RFU): test concentration or dose not given here

Molecule	Lipase (RFU)	Hit in lipase inhibition screen (in words)	Effect on lipase / lipolysis (in words)	Synergistic effect in combination testing (in words)
Cc1ccc(OS(=O)(=O)[O-])cc1.[K+] [p-Cresyl sulfate (potassium)]	825.569 RFU	–	–	–
Cc1ccc(C=O)cc1 [p-Tolualdehyde]	1029.761 RFU	–	–	–
O=C(O)[C@@H]1C[C@@H](O)CN1 [trans-4-Hydroxy L-Proline]	608.0856 RFU	–	–	–
O=C(O)/C=C(\CC(=O)O)C(=O)O [trans-Aconitic acid]	946.0721 RFU	–	–	–
CCCCCC/C=C/CCCCCCCCCC(=O)O [trans-Vaccenic acid]	932.0426 RFU	–	–	–
C/C(=C\CNc1ncnc2c1ncn2[C@@H]1O[C@H](CO)[C@@H](O)[C@H]1O)CO [trans-Zeatinriboside]	823.084 RFU	–	–	–
CC1=CCC(=O)O1 [α-Angelica lactone]	1137.248 RFU	–	–	–
OC[C@H]1O[C@@H](O[C@H]2[C@H](O)[C@@H](O)[C@@H](O)O[C@@H]2CO)[C@H](O)[C@@H](O)[C@H]1O [α-Lactose]	963.7922 RFU	–	–	–
C[C@H]1CC[C@@H]2[C@@H](C)[C@H]3[C@H](C[C@H]4[C@@H]5CC=C6C[C@@H](O[C@@H]7O[C@H](CO)[C@H](O)[C@H](O[C@@H]8O[C@H](CO)[C@@H](O)[C@H](O)[C@H]8O)[C@H]7O[C@@H]7O[C@@H](C)[C@H](O)[C@@H](O)[C@H]7O)CC[C@]6(C)[C@H]5CC[C@]34C)N2C1 [α-Solanine]	840.4474 RFU	–	–	–
CC(C)[C@]12CC(=O)[C@H](C)[C@H]1C2 [α-Thujone]	659.4321 RFU	–	–	–
N#CCCN [β-Aminopropionitrile]	985.2024 RFU	–	–	–
CC1(C)CC[C@]2(C)CC[C@]3(C)C(=CC[C@@H]4[C@@]5(C)CC[C@H](O)C(C)(C)[C@@H]5CC[C@]43C)[C@@H]2C1 [β-Amyrin]	1183.423 RFU	–	–	–
CC1=C(/C=C/C(C)=C/C=C/C(C)=C/C=C/C=C(C)/C=C/C=C(\C)C=O)C(C)(C)CCC1 [β-Apo-8′-carotenal]	958.4764 RFU and 851.8107 RFU	–	–	–
C[C@H]1[C@H](C)CC[C@]2(C)CC[C@]3(C)C(=CC[C@@H]4[C@@]5(C)CC[C@@H](O)[C@](C)(C(=O)O)[C@@H]5CC[C@]43C)[C@H]12 [β-Boswellic acid]	813.2666 RFU	–	–	–
C=C1CC/C=C(\C)CC[C@@H]2[C@@H]1CC2(C)C [β-Caryophyllene]	881.1948 RFU	–	–	–
OC[C@H]1O[C@@H]2O[C@H]3[C@H](O)[C@@H](O)[C@@H](O[C@H]4[C@H](O)[C@@H](O)[C@@H](O[C@H]5[C@H](O)[C@@H](O)[C@@H](O[C@H]6[C@H](O)[C@@H](O)[C@@H](O[C@H]7[C@H](O)[C@@H](O)[C@@H](O[C@H]8[C@H](O)[C@@H](O)[C@@H](O[C@H]1[C@H](O)[C@H]2O)O[C@@H]8CO)O[C@@H]7CO)O[C@@H]6CO)O[C@@H]5CO)O[C@@H]4CO)O[C@@H]3CO [β-Cyclodextrin]	886.2621 RFU	–	–	–
C=C[C@]1(C)CC[C@@H](C(=C)C)C[C@H]1C(=C)C [β-Elemene]	1099.979 RFU	–	–	–
OC[C@H]1O[C@@H](OC[C@H]2O[C@@H](O)[C@H](O)[C@@H](O)[C@@H]2O)[C@H](O)[C@@H](O)[C@@H]1O [β-Gentiobiose]	997.1115 RFU	–	–	–
C=C1CCC2CC1C2(C)C (stereo not drawn) [β-Pinene]	851.1223 RFU	–	–	–
CC(C)=CCC/C(C)=C/CC/C(C)=C/CC[C@]1(C)CCc2c(C)c(O)cc(C)c2O1 [β-Tocotrienol]	668.6336 RFU	–	–	–
N#CC[C@H](N)C(=O)O [β-cyano-L-Alanine]	869.3786 RFU	–	–	–
N[C@@H](CCC(=O)N[C@@H](Cc1ccccc1)C(=O)O)C(=O)O [γ-Glu-Phe]	1077.051 RFU	–	–	–
CCC1CCC(=O)O1 (stereo not drawn) [γ-Hexalactone]	1020.576 RFU	–	–	–
CC(C)=CCC/C(C)=C/CC/C(C)=C/CC[C@]1(C)CCc2cc(O)c(C)c(C)c2O1 [γ-Tocotrienol]	703.9438 RFU and 665.753 RFU	–	–	–
CCCCCC1CCCC(=O)O1 (stereo not drawn) [δ-Decalactone]	1070.795 RFU	–	–	–

Molecule	Lipase (RFU)	Hit in lipase inhibition screen (in words)	Effect on lipase / lipolysis (in words)	Synergistic effect in combination testing (in words)
CC(C)=CCC/C(C)=C/CC/C(C)=C/CC[C@]1(C)CCc2cc(O)cc(C)c2O1 [δ-Tocotrienol]	1061.05 RFU	–	–	–
O=C1CCCCCCCCCCCCCCO1 [ω-Pentadecalactone]	959.0542 RFU	–	–	–
(+)-Catechin hydrate	928.2252 RFU	–	–	–
(+)-Secoisolariciresinol	1148.179 RFU	–	–	–
(−)-Epiafzelechin	915.141 RFU	–	–	–
(−)-Epigallocatechin	928.0708 RFU	–	–	–
(−)-Epigallocatechin Gallate	333.087 RFU	–	–	–
(−)-Fenchone	812.4614 RFU	–	–	–
(−)-Limonene	914.6466 RFU and 836.6929 RFU	–	–	–
(−)-Menthone	1263.606 RFU	–	–	–
Adenine (hemisulfate)	842.2125 RFU	–	–	–
Alliin	782.3552 RFU	–	–	–
Anacardic Acid	908.2535 RFU	–	–	–
Carbinoxamine maleate salt	807.8179 RFU	–	–	–
Catechin	945.7654 RFU	–	–	–
Chicoric acid	1008.153 RFU	–	–	–
Chondroitin (sulfate)	714.418 RFU	–	–	–
Chondroitin Sulfate	348.836 RFU	–	–	–
Chondroitin Sulfate C	308.9045 RFU	significantly inhibited lipase activity	–	–
Curdlan	876.416 RFU	–	–	–
Cytidine-2′,3′-cyclic monophosphate	1332.358 RFU	–	–	–
D-(−)-Quinic acid	827.4863 RFU	–	–	–
D-Pantothenic acid (hemicalcium salt)	932.4036 RFU	–	–	–
Dextran	949.1554 RFU	–	–	–
Dextrin	915.3079 RFU	–	–	–

Molecule	Lipase (RFU)	Hit in lipase inhibition screen (in words)	Effect on lipase / lipolysis (in words)	Synergistic effect in combination testing (in words)
Disodium succinate	1168.659 RFU and 874.998 RFU	–	–	–
Eicosadienoic acid	795.3404 RFU	–	–	–
Elemicin	1009.834 RFU	–	–	–
Erythrosine B	836.3958 RFU	–	–	–
Estrone sulfate (potassium)	961.3154 RFU	–	–	–
Fucoidan from Macrocystis pyrifera	384.150 RFU	–	–	–
Gentiobiose	1106.66 RFU	–	–	–
Ginkgolic Acid	924.5734 RFU	–	–	–
Ginkgolide C	1234.872 RFU	–	–	–
Gluconate (Calcium)	840.1946 RFU	–	–	–
Glycogen	745.3227 RFU	–	–	–
Heparan Sulfate	1097.057 RFU	–	–	–
Hyaluronic acid	1101.829 RFU	–	–	–
Inulin	793.2721 RFU and 805.6516 RFU and 1006.043 RFU	–	did not inhibit or slow human milk lipolysis	did not have synergistic effects
Isobergapten	1247.074 RFU	–	–	–
Isoliquiritin apioside	821.8958 RFU	–	–	–
Lactate	1249.686 RFU	–	–	–
Laminarin	336.7375 RFU and 594.197 RFU	significantly inhibited lipase activity	–	–
Lignin	849.2641 RFU	–	–	–
Liquiritin apioside	875.5815 RFU	–	–	–
Lupeol acetate	966.2407 RFU	–	–	–
Maltohexaose	977.7036 RFU	–	–	–
Maltopentaose	907.876 RFU	–	–	–
Maltotetraose	824.2713 RFU	–	–	–
